From the supplement of paper PMC5412046
Structures can show the parent of a compound that is named as a salt.

Legend:
SB.msgc-1 = assay: AC50 for growth inhibition (viability) (log10 M); higher = less potent; details: SB.msgc-1 (sporadic gastric cancer)
In short: (§1)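 In 1536-well plates, each well held 500 patient-derived gastric cancer cells (hereditary or sporadic) in 5 μL medium. Compound in DMSO, 23 nL per well, was pinned in 11 threefold dilutions starting at a final 46 μM. Following 48 h of exposure, cells had CellTiter-Glo for 30 min at room temperature before ViewLux luminescence reading. Only high-quality curve classes from four-parameter fits of DMSO-normalised viability gave the log half-maximal activity concentration.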

SB.mhdgc-1 = assay: as above; details: SB.mhdgc-1 (hereditary c.1380delA CDH1 gastric cancer)
In short: as §1

SMILES | AC50 for growth inhibition (log10 M) (SB.msgc-1) | AC50 for growth inhibition (log10 M) (SB.mhdgc-1)
CCN(CC)Cc1ccc2cc(COC(=O)Nc3ccc(C(=O)NO)cc3)ccc2c1 [Givinostat hydrochloride] | -6.03 | -5.38
O=[S+]([O-])(NCCNC/C=C/c1ccc(Br)cc1)c1cccc2cnccc12 [H-89] | -4.73 | -4.88
CCOC(=O)C(C#N)C\1C2=CC(=CC=C2O\C(=C1C(=O)OCC)N)Br (stereo unspecified) [HA-14-1] | -4.63 | -4.68
CCCCN(CCCC)CCC(O)c1cc2c(Cl)cc(Cl)cc2c2cc(C(F)(F)F)ccc12 (stereo unspecified) [Halofantrine] | -4.73 | -4.68
CC[S+](=O)([O-])Nc1ccc2c(c1)/C(=C(/Nc1ccc(CN3CCCCC3)cc1)c1ccccc1)C(=O)N2 [Hesperadin] | -5.23 | -5.18
CCC(c1ccc(O)cc1)C(CC)c1ccc(O)cc1 (stereo unspecified) [Hexestrol] | -5.88 | -5.88
CNC1CCC(N(Cc2cccc(-c3ccncc3)c2)C(=O)c2sc3c(F)ccc(F)c3c2Cl)CC1 (stereo unspecified) [Hh-Ag1.5] | -4.83 | -4.73
NC(=O)NO [Hydroxyurea] | -6.88 | -6.08
COc1cc(O)c2c(c1)C1OC1C[C@H](O)[C@H](O)C(=O)/C=C\C[C@H](C)OC2=O (stereo partly specified) [Hypothemycin] | -4.83 | -5.03
COc1cc2c(cc1-c1c(C)noc1C)ncc1[nH]c(=O)n([C@H](C)c3ccccn3)c12 [I-BET151] | -5.28 | -4.93
CCNC(=O)C[C@@H]1\N=C(C2=CC=C(Cl)C=C2)/C3=C(C=CC(=C3)OC)[N]4C(=NN=C14)C [I-BET762] | -5.63 | -6.08
O=C1[C@H](Cc2ccc(O)cc2)N2C(=O)CCN(C(=O)NCc3ccccc3)[C@H]2CN1Cc1cccc2ccccc12 [ICG-001] | -4.88 | -4.83
CCCCc1ccc(N[S+](=O)([O-])c2ccc(C)c(C(=O)N3CCN(c4cccc(C)c4C)CC3)c2)cc1 [IDH-001] | -4.68 | -4.83
O=C(c1ccc(Nc2nccc(-c3cc4ccccc4s3)n2)cc1)N1CCC(N2CCCC2)CC1 [IKK16] | -4.88 | -5.08
N#Cc1c(C2CCNCC2)cc(-c2c(O)cccc2OCC2CC2)nc1N [IKK-2 Inhibitor VIII] | -4.73 | -4.88
O=C(Nc1cc(C(F)(F)F)cc(C(F)(F)F)c1)c1cc(Cl)ccc1O [IMD-0354] | -5.73 | -5.78
CC(C)n1nc(-c2ccc3oc(N)nc3c2)c2c(N)ncnc21 [INK-128] | -5.48 | -4.78
Nc1ccc(C(=O)c2cc3c(ccc4ccccc43)[nH]2)cc1 [IPFK2] | -5.33 | -4.73
CCOC(=O)\C1=C(/C)N\C2=C(C1C3=CC=C(C=C3)C4=CC=CC=C4)\C(=O)CC(C)(C)C2 (stereo unspecified) [ITD-1] | -4.73 | -4.83
COc1cc(C)c(Sc2cnc(NC(=O)c3ccc(CNC(C)C(C)C)cc3)s2)cc1C(=O)N1CCN(C(C)=O)CC1 (stereo unspecified) [ITK inhibitor] | -4.73 | -4.78
COc1ccc([S+](=O)([O-])N(C(C)=O)c2ccccc2/C=C/c2cc[n+]([O-])cc2)cc1 [IVX-214] | -6.38 | -6.53
COC1=CC=C(C=C1)/C2=C(O)/C(=O)C3=C(O)C=C(O)C(=C3O2)CC=C(C)C [Icaritin] | -4.63 | -4.88
CC(=O)[C@]1(O)Cc2c(O)c3c(c(O)c2[C@@H](O[C@H]2C[C@H](N)[C@H](O)[C@H](C)O2)C1)C(=O)c1ccccc1C3=O [Idarubicin hydrochloride] | -6.63 | -7.38
CC(C)Cn1cnc2c(N)nc3ccccc3c21 [Imiquimod] | -4.73 | -5.93
O=C(Nc1ccncc1)C(=O)c1cn(Cc2ccc(Cl)cc2)c2ccccc12 [Indibulin] | -5.68 | -6.28
CC(C)(C)NC(=O)[C@@H]1CN(Cc2cccnc2)CCN1C[C@@H](O)C[C@@H](Cc1ccccc1)C(=O)N[C@H]1c2ccccc2C[C@H]1O.O=S(=O)(O)O [Indinavir] | -4.78 | -6.08
COc1ccc2c(c1)c(CC(=O)O)c(C)n2C(=O)c1ccc(Cl)cc1 [Indomethacin] | -5.93 | -6.03

SMILES | AC50 for growth inhibition (log10 M) (SB.msgc-1) | AC50 for growth inhibition (log10 M) (SB.mhdgc-1)
CCC1=C2C=C(OC(=O)N3CCC(CC3)N4CCCCC4)C=CC2=NC\5=C1CN6C(=O)\C7=C(/C=C56)[C@@](O)(CC)C(=O)OC7 [Irinotecan] | -6.73 | -6.78
CC(C)NCC(O)c1ccc(O)c(O)c1 (stereo unspecified) [Isoprenaline hydrochloride] | -4.83 | -5.43
CC1=C(/C=C/C(C)=C/C=C/C(C)=C\C(=O)O)C(C)(C)CCC1 [Isotretinoin] | -5.33 | -4.63
COC(=O)C\1=C(C)\N\C(=C(/C1C2=CC=CC3=NON=C23)C(=O)OC(C)C)C (stereo unspecified) [Isradipine] | -4.78 | -5.38
CC(C)C[C@H](NC(=O)CNC(=O)c1cc(Cl)ccc1Cl)B1OC(=O)CC(CC(=O)O)(C(=O)O)O1 (stereo partly specified) [Ixazomib citrate] | -7.23 | -7.03
CC(C)C[C@H](NC(=O)CNC(=O)c1cc(Cl)ccc1Cl)B(O)O [Ixazomib] | -7.03 | -6.63
CC1=C(C)C2=C(S1)[N]3C(=NN=C3[C@H](CC(=O)OC(C)(C)C)/N=C2/C4=CC=C(Cl)C=C4)C [JQ1] | -5.38 | -5.28
CCOC(=O)N1CCN(/[N+]([O-])=N/Oc2ccc([N+](=O)[O-])cc2C#N)CC1 [JS-59-4] | -5.13 | -4.78
CCc1ccc(OCc2ccccc2C(=O)Nc2ccc3nc(C)cc(N)c3c2)cc1 [JTC-801] | -4.98 | -5.43
CC(C)CNc1ccnc(NCc2csc(-c3ccccc3)n2)n1 [KHS101] | -4.78 | -4.78
NC(CO)(CO)CCc1ccc(Sc2cccc(OCc3ccccc3)c2)cc1Cl [KRP 203] | -4.58 | -5.03
O=C(Cc1ccc(-c2ccc(OCCN3CCOCC3)cc2)cn1)NCc1ccccc1 [KX-01] | -7.48 | -8.18
OC1=CC=C(C=C1)\C2=C(O)\C(=O)C3=C(O2)C=C(O)C=C3O [Kaempferol] | -4.88 | -4.93
O=C(c1ccccc1)c1ccc2n1CCC2C(=O)O (stereo unspecified) [Ketorolac] | -5.78 | -5.98
CN1CC/C(CC1)=C3\c4ccccc4CC(=O)c2sccc23 [Ketotifen] | -4.78 | -5.53
Cc1cc(-c2ncc(CC(=O)Nc3ccc(-c4cnccn4)cn3)cc2C)ccn1 [LGK974] | -4.78 | -4.88
N[S+](=O)([O-])c1cccc2c1C(=O)c1cccc(O)c1C2=O [LLL-12] | -6.63 | -6.98
COc1cc(C(=O)N2CCC(N3CCN(C)CC3)CC2)ccc1Nc1ncc2c(n1)N(C)c1ccccc1C(=O)N2C [LRRK2-IN-1] | -4.83 | -4.78
Nc1nnc(-c2cccc(Cl)c2Cl)c(N)n1 [Lamotrigine] | -4.63 | -4.53
COc1cc2nccc(Oc3ccc(NC(=O)NC4CC4)c(Cl)c3)c2cc1C(N)=O [Lenvatinib] | -5.48 | -6.38
C[C@@]12O[C@@H](C[C@]1(O)CO)n1c3ccccc3c3c4c(c5c6ccccc6n2c5c31)CNC4=O [Lestaurtinib] | -5.48 | -6.33
C[C@]1(O)CC(C1)C2=NC(=C3[N]2C=CN=C3N)C4=CC5=C(C=C4)C=CC(=N5)C6=CC=CC=C6 (stereo unspecified) [Linsitinib] | -4.78 | -5.03
C[S+](=O)([O-])Oc1ccc2c(NC(N)=O)c(C(=O)c3ccc(Cl)cc3Cl)oc2c1 [Lirimilast] | -5.53 | -6.08
NC(=O)N1CCC(CC(=O)N2CCC([C@H]3c4ncc(Br)cc4CCc4cc(Cl)cc(Br)c43)CC2)CC1 [Lonafarnib] | -4.78 | -4.78
CN1\C(=C(O)/C2=C(C=C(Cl)S2)[S+]1([O-])=O)C(=O)NC3=NC=CC=C3 [Lornoxicam] | -5.43 | -5.88
Cc1ccc(NC(=O)C2(c3ccc4c(c3)OC(F)(F)O4)CC2)nc1-c1cccc(C(=O)O)c1 [Lumacaftor] | -7.63 | -6.73
